The values below come from article PMC6264317, “Acetylcholinesterase-inhibiting Alkaloids from Zephyranthes concolor” (Molecules, 2011).

Data set [1] relates to electric eel acetylcholinesterase. As to conditions: cited from earlier work.
Data set [2] relates to HIV-1. The following applies: human MT4 cells; cited from earlier work.
For data set [3], the system named is human MT4 cells. The following applies: cited from earlier work.
Data set [4] in a line: Cytotoxicity in non-infected MT-4 cells (MTT). The following applies: human. It counts as cell-based, human. The procedure: (§1) Anti-HIV activity and cytotoxicity were evaluated in human MT-4 cells based on viability of cells that have been infected or not infected with HIV-1 following exposure to various concentrations of the test compound according to the procedure previously described. After proliferation for 5 days the number of viable MT-4 cells was quantified by tetrazolium-based colorimetric method (MTT). The HIV-1 NL4-3 virus used was a molecular clone obtained from the National Institute of Health (Bethesda, USA) that was propagated and tittered in MT-4 cells. All anti-HIV evaluations were done in triplicate in two separate experiments.

Data set [5] concerns HIV-1 (NL4-3). The data set can be described thus: Anti-HIV activity in MT-4 cells (MTT viability of infected cells). It counts as cell-based. As to conditions: for EC50: Human immunodeficiency virus 1, NL43, MT4, 120 h, read-out: EC50 HIV-1 (NL4-3): effective concentration needed to inhibit 50% HIV-induced cell death, 5 days. On the procedure: as §1
In data set [6] the target is T1, electric eel acetylcholinesterase (Electrophorus electricus, UniProt O42275).
T1 construct: purchased Sigma Aldrich Chemie (Stenheim, Germany) type V-S
T1 sequence (O42275 24-633): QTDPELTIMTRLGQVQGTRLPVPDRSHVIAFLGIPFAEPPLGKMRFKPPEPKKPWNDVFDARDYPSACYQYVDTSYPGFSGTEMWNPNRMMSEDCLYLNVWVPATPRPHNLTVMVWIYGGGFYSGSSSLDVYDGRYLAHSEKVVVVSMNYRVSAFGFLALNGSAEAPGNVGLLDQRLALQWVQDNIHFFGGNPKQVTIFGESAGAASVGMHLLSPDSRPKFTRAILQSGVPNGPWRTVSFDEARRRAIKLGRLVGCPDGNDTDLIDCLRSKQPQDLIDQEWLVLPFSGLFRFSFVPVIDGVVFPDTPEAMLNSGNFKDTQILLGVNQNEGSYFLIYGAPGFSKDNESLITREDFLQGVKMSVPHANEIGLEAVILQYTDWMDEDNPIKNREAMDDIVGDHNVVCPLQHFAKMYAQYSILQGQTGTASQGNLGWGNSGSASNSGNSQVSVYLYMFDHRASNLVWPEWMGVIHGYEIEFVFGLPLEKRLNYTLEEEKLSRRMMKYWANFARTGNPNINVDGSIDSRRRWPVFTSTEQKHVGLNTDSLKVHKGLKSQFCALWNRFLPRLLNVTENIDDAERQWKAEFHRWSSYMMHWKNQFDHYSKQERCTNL
The data set can be described thus: biochemical. On the procedure: The assay for measuring acetylcholinesterase (AChE) inhibitory activity was performed in 96 well microtitre plates as previously described. […] Acetylcholinesterase from Electrophorus electricus L. (electric eel) type V-S lyophilized powder, acetyl-thiocholine iodide (ATCI), and 5,5′-dithio-bis[2-nitrobenzoic acid] (DNTB) were obtained from Sigma Aldrich Chemie (Stenheim, Germany). Fifty microliters of AChE solution (500 U/mL) in phosphate buffer (8 mM K2HPO4, 2.3 mM NaH2PO4, 0.15 M NaCl, 0.05% Tween 20, pH 7.6), and 50 μL of the compound dissolved in the same buffer were added to each of the wells. The plates were incubated for 30 min at room temperature before addition of 100 μL of the substrate solution (0.1 M NaH2PO4, […], 0.6 mM ATCI in Millipore water, pH 7.5). Absorbance was recorded in a Labsystems Microplate Reader (Helsinki, Finland) at 405 nm after 6 min. Enzyme activity was calculated as percentage compared to an assay using a buffer without the tested compound. The AChE inhibitory data were analysed with the Prism software package (Graph Pad Inc., San Diego, USA).

Data set [7] deals with human MT-4 cells. The data set is described as follows: Cytotoxicity in non-infected MT-4 cells (MTT). Format: cell-based. The following applies: 5 days. The procedure: as §1
The mark [8] stands for this setting: means ± SD of three determinations (10^−8 to 10^−3 M), read-out: EC50 (M), acetylcholinesterase inhibitory activity.
[9] abbreviates: in vitro, read-out: EC50, inhibition of electric eel acetylcholinesterase in vitro.

In brackets after ≈: the same amount, converted by molar mass. Where two headings read alike, the source gives them in different places. Bounds are passed on as bounds.

Take `CN1CC[C@@]23C=C[C@H](O)C[C@@H]2Oc2c(O)ccc(c23)C1` [sanguinine]: the “increase of the AChE inhibitory activity relative to galanthamine” value in data set [1] is given as around 10 fold.

Consider `COc1ccc2c3c1O[C@H]1C[C@H](O)CC[C@@]31CCNC2` [epinorlycoramine], for which the “acetylcholinesterase inhibitory activity in words” value in data set [1] is “completely lost”.

Consider `c1ccc2c(c1)ncc1cc3c(cc12)OCO3` [trisphaeri-dine, trisphaeridine], for which, in data set [2], the “therapeutic index TI50” value is listed as “even lower therapeutic indices than lycorine”.

On to `COc1ccc2c3c1O[C@H]1C[C@@H](O)CC[C@]31CCN(C)C2` [lycoramine], for which the “acetylcholinesterase inhibitory activity in words” value in data set [1] is given as “completely lost”.

By CC50 is commonly meant the concentration at which the toxic effect on the cells reaches its halfway point. Take `O[C@H]1[C@H]2c3cc4c(cc3CN3CCC(=C[C@@H]1O)[C@H]23)OCO4` [Lycorine (4), lycorine]: in data set [3], the “cytotoxicity TC50” value is 0.75 µg/mL. Besides, in data set [1], the “acetylcholinesterase inhibitory activity in words” value is “inactive”. For the same compound, the midpoint of cytotoxicity in data set [4], the CC50 at 5 days, lay at 0.48 µg/mL (≈ 1.67 µM). Further, the EC50 in data set [5] was above 0.5 µg/mL. In data set [2], the “anti-HIV-1 activity ID50” value was 0.4 µg/mL and the “therapeutic index TI50” value is on record as 1.9.

For `COc1cc2c(cc1O)[C@@H]1[C@H](OC2=O)[C@@H](OC)[C@@H]2O[C@@]23CCN(C)[C@@H]13` [Galwesine (5), galwesine], in data set [4], the CC50 at 5 days is 71.4 µg/mL (≈ 206 µM). The EC50 in data set [5] was above 71.4 µg/mL; in data set [6] (setting [8]), above 0.001 M. Besides, the “acetylcholinesterase inhibition in words” value in data set [6] (at 10^−3 M) is “inactive”.

Consider `Cc1cn([C@H]2C[C@H](N=[N+]=[N-])[C@@H](CO)O2)c(=O)[nH]c1=O` [AZT, reference compound], for which, in data set [7], the “CC50 No virus: concentration needed to induce 50% death of non-infected cells” value is above 1 µg/mL. In data set [5] (5 days), the “EC50 HIV-1 (NL4-3): effective concentration needed to inhibit 50% HIV-induced cell death” value is 0.0007 µg/mL (≈ 0.00262 µM).

Take `COc1ccc2c3c1O[C@H]1C[C@@H](O)C=C[C@@]31CCN(C)C2` [Galanthamine (2), galanthamine, reference compound]: the half-maximal cytotoxic concentration (CC50) at 5 days in data set [4] is above 25 µg/mL. Further, the EC50 in data set [5] is above 25 µg/mL.

With `COc1ccc2c3c1O[C@H]1C[C@@H](O)C=C[C@@]31CC[N+](C)([O-])C2` (some centres unmarked) [Galanthamine N-oxide (3), galanthamine N-oxide], the CC50 at 5 days in data set [4] is above 25 µg/mL. In addition, the EC50 in data set [5] was above 25 µg/mL; in data set [6] (setting [9]), 2.6e-05 M; in data set [6] (setting [8]) it was 2.62e-05 M.

`COC1C=CC23CCN(C)Cc4ccc(O)c(c42)OC3C1` (centres unmarked) [Chlidanthine (1), chlidanthine] displayed a cytotoxic concentration (CC50) at 5 days in data set [4] above 25 µg/mL. Besides, the results for the EC50 in data set [5], in data set [6] (setting [9]) and in data set [6] (setting [8]) were above 25 µg/mL, 2.4e-05 M and 2.41e-05 M, respectively.

For the compound `COc1ccc2c3c1O[C@H]1C[C@H](O)C=C[C@@]31CCNC2` [Epinorgalanthamine (6), epinorgalanthamine], the EC50 in data set [1] (previously reported, read-out: acetylcholinesterase inhibitory properties) is 9.6 µM; in data set [5] it was above 13 µg/mL. Moreover, it took 13 µg/mL (≈ 47.6 µM) to reach half-maximal cytotoxicity in data set [4] (CC50 at 5 days).

Regarding `c1cc(CN2CCCNCCNCCCNCC2)ccc1CN1CCCNCCNCCCNCC1` [AMD3100, reference compound], the 50% cytotoxic concentration (CC50) at 5 days in data set [4] is above 5 µg/mL. In addition, the EC50 in data set [5] is 0.001 µg/mL (≈ 0.00199 µM).

As to `Cc1ccnc2c1NC(=O)c1cccnc1N2C1CC1` [Nevirapine, reference compound], the CC50 at 5 days in data set [4] is above 2 µg/mL. Further, the EC50 in data set [5] turned out to be 0.034 µg/mL (≈ 0.128 µM).

`CO[C@@H]1C=C[C@@]23c4cc5c(cc4CN(C[C@@H]2O)[C@H]3C1)OCO5` [haemanthamine]: the “therapeutic index TI50” value in data set [2] is listed as “even lower therapeutic indices than lycorine”.

As to `COc1cc2c(cc1OC)[C@H]1[C@H]3C(=CC[C@H]1OC2=O)CCN3C` [homolycorine], the “therapeutic index TI50” value in data set [2] is on record as “even lower therapeutic indices than lycorine”.
